Measured values published in US20240091328A1, “FORMULATIONS AND METHODS FOR MHC-I RESTRICTED EPITOPE IMMUNIZATION” (The Research Foundation for The State University of New York, priority 2021, published 2024).
Counter-ions that a name gives are not always drawn.

Columns and labels:
[1] = tested on: IFN-γ producing CD8^+ T cells; assay: Intracellular IFN-γ in CD8+ T cells of re-stimulated PBMCs; format: in vivo, C57BL/6 mice; conditions: multivalent E6/E7 vaccine, 100 ng each peptide
Procedure: The E6 and E7 genes of TC-1 cells were sequenced from extracted DNA using Sanger sequencing. Six predicted H-2K^b- and H-2D^b-restricted epitopes within the top percentile of MHC-I binders were identified using a neural network simulation algorithm. […] These 6 peptides were combined with CPQ to form a single multivalent vaccine for mice and the immunogenicity of each peptide were assessed by Interferon gamma (IFN-γ production after individual peptide stimulation of collected peripheral blood mononuclear cells (PBMCs). Mice were then challenged with TC-1 cells subcutaneously to assess the tumor protection of the vaccine (FIG. 21A).
Collected PBMCs were re-stimulated with the epitope candidates that comprised the multivalent vaccine after which CD8^+ T cells were assessed for intracellular IFN-γ production, indicating the induction of Ag-specific CD8^+ T cells. […] When PBMCs from mice injected with the non-particle forming 2HPQ/peptides were re-stimulated with the peptides, none induced IFN-γ producing CD8^+ T cells (FIG. 21E).

[2] = tested on: CT26 cells; assay: Experimental lung metastasis tumor model, CT26; format: in vivo, BALB/c mice; conditions: 1000 ng (total) peptides with CPQ, 1 and 8 days after i.v. CT26
Procedure: Tumor challenge: For the prophylactic vaccine tumor model, mice were vaccinated on day 0 and 7, and challenged on day 14. For testing the long-term protection of vaccine, mice were challenged on day 80. For the therapeutic vaccine tumor model, mice were inoculated with tumor cells subcutaneously on day 0, and then vaccinated with indicated vaccine on days 5 and 12. Tumor growth was monitored three times a week and tumor sizes were calculated by equation: Tumor volume=length×width^2/2. Animals were euthanized when the tumor sizes reached 1 cm in diameter or when animals developed an ulceration. For the experimental lung metastasis tumor model, animals were injected intravenously via tail vein with tumor cells on day 0, then were left untreated or treated with intramuscular injection with the indicated vaccines on day 2 and 9 for the A5 vaccine studies or day 1 and 8 for the RragcL385P, Tmem5S71N or EML5G44R peptide screening studies. Lungs were excised and stained with Bouin's solution (Sigma Catalog: HT10132) on day 18 for mice injected with CT26 cells and on day 16 for mice injected with 4T1 cells. Tumor nodules were counted manually and lung weights were measured.

[3] = tested on: TC-1 cells; assay: Prophylactic vaccine tumor model, subcutaneous TC-1 challenge; format: in vivo, C57BL/6 mice; conditions: days 0 and 7, challenge day 14
Source text: To determine immunogenicity, C57BL/6 mice were then vaccinated intramuscularly with the multivalent vaccine on days 0 & 7, and peripheral blood mononuclear cells (PBMCs) were collected and mice challenged with TC-1 tumor cells on day 14. […] Thus, the presentation of the peptides in the form of a particle, even with identical amounts of QS-21 and MPLA, appeared to be important for inducing memory CD8^+ T cells.
Next, to determine which of the peptide epitopes provided anti-tumor activity, peptides were admixed individually with CPQ or 2HIPQ liposomes (FIG. 22A). Individually, all of the peptides effectively bound to CPQ liposomes, but not to 2HIPQ liposomes lacking cobalt (FIG. 22B). Liposome size remained ˜100 nm after binding with E6 and E7 peptides (FIG. 22C). Next, mice were vaccinated with the peptides admixed with CPQ on days 0 & 7 at a peptide dose of 500 ng. Each mouse was then challenged with TC-1 cells on day 14. […]
Tumor challenge: For the prophylactic vaccine tumor model, mice were vaccinated on day 0 and 7, and challenged on day 14. […] Tumor growth was monitored three times a week and tumor sizes were calculated by equation: Tumor volume=length×width^2/2. […] Tumor nodules were counted manually and lung weights were measured.

[4] = tested on: RAW264.7 murine macrophage cells; assay: In vitro cell uptake of A5-HiLyte488, macrophages; format: cell-based, mouse; conditions: cells pre-incubated with inhibitor 10 μg/mL for an hour, CPQ/A5
Procedure: For in vitro cell uptake studies, RAW264.7 cells (2.5×10^5 per well) and BMDCs (2.5×10^5 per well) were cultured in a 24-well plates overnight, then treated with CPQ/A5-HiLyte488, 2HPQ/A5-HiLyte488 and PBS/A5-HiLyte488 (peptide concentration of 1 μg/mL) for 10 min, 30 min or an hour. For phagocytosis and endocytosis inhibitor study, cells were first pre-incubated with cytochalasin B (10 μg/ml) or chlorpromazine (10 μg/mL) for an hour before the cell uptake study. Cells were washed and lysed with 0.1% Triton X-100 and 10 mM dithiothreitol (DTT). The fluorescence signals were measured before and after adding DTT. Cellular A5-HiLyte488 uptakes were calculated by preparing an A5-HiLyte488 standard curve.

[5] = tested on: IFN-γ and TNF-α producing CD8^+ T cells; assay: Intracellular IFN-γ / TNF-α staining of splenocytes after antigen re-stimulation; format: in vivo, BALB/c mice; conditions: mice vaccinated with CPQ and 20 RENCA peptides
Procedure: For Intracellular staining: 100 μL of 1×10^6 splenocytes were seeded in a flat bottom 96 wells plate and stimulated with 10 μg/mL antigen for 15-18 hours in the cell culture incubator. Then Brefeldin A was added to the plates with a dilution of 1000× for another 5 hours. Cells were transferred to a round bottom 96 wells plate and centrifuged at 1350 rpm for 3 mins, the cell pellets were washed twice and stained with 500× live/dead fixable dye, 200× diluted APC anti-mouse CD8, 200× diluted FITC anti-mouse CD4, 200× diluted PE/Cy7 anti-mouse CD62L and 200× diluted PerCP/Cy5.5 […] 25 min at 4° C. with shaking. Cells were washed twice and fixed and permeabilized by fixation/permeabilization buffer for 20 min at 4° C. Cells were washed twice with perm wash buffer and stained with 200× diluted pacific blue anti-mouse IFN-γ and 200× diluted PE anti-mouse TNF-α for 30 min on ice. Cells were washed twice by perm/wash buffer for flow cytometry.

[6] = tested on: IFN-γ; assay: In vivo peptide micro-library screening, IFN-γ ELISA of re-stimulated splenocytes relative to A5; set-up: species or system mice; conditions: rank among 100 micro-library peptides; IFN-γ on re-stimulation relative to A5; 5 peptides plus A5 with CPQ
Procedure: Mice were immunized with 5 library peptides at a time, along with the A5 peptide, with all peptides combined and admixed with CPQ. After two intramuscular injections, splenocytes were collected, and then re-stimulated with each of the synthetic micro-library peptides, individually. Production of IFN-γ was measured and peptide immunogenicity was determined relative to the A5 peptide, which served as in internal control that could induce strong Ag-specific CD8^+ T cell responses.
For Ag screening, multivalent vaccine composed of peptide with the same MHC-I haplotypes (H-2L^d, H-2D^d, or H-2K^d) and the internal A5 peptide were admixed with CPQ. After immunization, only ˜10% of MHC-I binding peptides induced T cells in splenocytes that produced IFN-γ with peptide re-stimulation, and none were nearly as effective as A5 (FIG. 16B). The most highly immunogenic peptides only produced about a quarter of the level of IFN-γ relative to A5. […] It is also feasible that immunization with higher antigen doses of single individual peptides could have induced stronger immunogenic responses, although this would decrease the in vivo peptide micro-library screening throughput.
IFN-γ ELISA: 2.5×10^5 splenocytes were seeded in a 96 wells plate and stimulated with 10 μg/mL antigens for 72 hr. 50 μL of supernatant was collected from each well and subjected to Interferon gamma ELISA (Thermofisher; catalog: BMS606TEN) according to manufacturer protocol.

Molecule	Experimental rank [6]	other results
H3-STHVDIRTL (HHHSTHVDIRTL; H3 N-terminal flank; E771-79)	–	IFN-γ producing cells of CD8+ T cells over background after peptide re-stimulation of PBMCs [1]: higher percentage
Tmem5S71N: 9-mer neoantigen peptide; tagged forms CT96 and 3his-CT96 (VVEANWTML) (HHHVVEANWTML; N-terminal 3His tag; 3his-CT96/Tmem5S71N)	–	Lung nodules [2]: no significant difference
Eml5G44R: 9-mer neoantigen peptide; tagged forms CT71 and 3his-CT71 (VYFVAGVRV)	–	Lung nodules [2]: no significant difference
H3-RAHYNIVTF (HHHRAHYNIVTF; H3 N-terminal flank; E749-57)	–	IFN-γ producing cells of CD8+ T cells over background after peptide re-stimulation of PBMCs [1]: higher percentage; Tumor-free survival maintained ([3]; 500 ng peptide with CPQ): at least 60 days; Tumor growth after TC-1 challenge, single peptide with CPQ ([3]; 500 ng peptide): inhibited tumor growth
C=C1[C@@H](C)[C@H]2[C@H](Cc3ccccc3)NC(=O)[C@]23OC(=O)/C=C/[C@H](O)CCC[C@@H](C)C/C=C/[C@H]3[C@@H]1O [cytochalasin B]	–	A5 peptide uptake by macrophages in the presence of inhibitor [4]: significantly less
3His-GYHESGHAI (HHHGYHESGHAI; N-terminal 3His tag; Renca_8)	–	IFN-γ producing CD8^+ T cells in the spleen after stimulation with individual peptide [5]: ~5%
H6-GRPSIDNVL-ERR (HHHHHHGRPSIDNVLERR; CT51)	37	–
CN(C)CCCN1c2ccccc2Sc2ccc(Cl)cc21 [chlorpromazine, Chlorpromazine hydrochloride]	–	A5 peptide uptake by macrophages in the presence of inhibitor [4]: significantly less
H6-SSKHRRSFV-ERR (HHHHHHSSKHRRSFVERR; CT38*)	45	–
H6-KGPRNIQLD-ERR (HHHHHHKGPRNIQLDERR; CT57)	48	–
H6-LFLKSPTAL-ERR (HHHHHHLFLKSPTALERR; CT34)	99	–
H6-EYEKIEIPI-ERR (HHHHHHEYEKIEIPIERR; CT68)	66	–
H6-NPRAMQVLL-ERR (HHHHHHNPRAMQVLLERR; CT20)	38	–
H6-PPQNMFEFP-ERR (HHHHHHPPQNMFEFPERR; CT82)	67	–
H6-KGPKRDEQC-ERR (HHHHHHKGPKRDEQCERR; CT2)	65	–
H6-IGQMLQTHF-ERR (HHHHHHIGQMLQTHFERR; CT84)	49	–
H6-TYWKGNPEM-ERR (HHHHHHTYWKGNPEMERR; CT31)	97	–

Molecule	Experimental rank [6]	other results
H6-KYFQAGKYE-ERR (HHHHHHKYFQAGKYEERR; CT69)	21	–
H6-YYMRDVIAI-ERR (HHHHHHYYMRDVIAIERR; CT33)	96	–
H6-TGPYVMMIG-ERR (HHHHHHTGPYVMMIGERR; CT6)	84	–
H6-TPPSHKLPL-ERR (HHHHHHTPPSHKLPLERR; CT55)	23	–
H6-LYLANLRHM-ERR (HHHHHHLYLANLRHMERR; CT64)	14	–
H6-AYVNAIEKI-ERR (HHHHHHAYVNAIEKIERR; CT12)	93	–
H6-GHVAAGGAL-ERR (HHHHHHGHVAAGGALERR; CT79)	46	–
H3-TLHEYMLDL (HHHTLHEYMLDL; H3 N-terminal flank; E76-14)	–	IFN-γ producing cells of CD8+ T cells over background after peptide re-stimulation of PBMCs [1]: higher percentage
H6-RGPPPHSAP-ERR (HHHHHHRGPPPHSAPERR; H6 and ERR flanks; CT46)	72	–
H6-KGPYWLEVK-ERR (HHHHHHKGPYWLEVKERR; CT44)	44	–
H6-SYLRRLPGL-ERR (HHHHHHSYLRRLPGLERR; CT35)	100	–
H6-SYTEQNVKL-ERR (HHHHHHSYTEQNVKLERR; CT30)	85	–
H6-WGAWLSGAL-ERR (HHHHHHWGAWLSGALERR; CT42)	28	–
H6-SPNRRFTEM-ERR (HHHHHHSPNRRFTEMERR; CT17)	58	–
H6-LFVTVLEVI-ERR (HHHHHHLFVTVLEVIERR; CT26)	91	–
H6-KTPEL VEAL-ERR (HHHHHHKTPELVEALERR; CT36*)	51	–
